Laboratory results published in ChEMBL document CHEMBL1157437, “Synthesis and biological activities of reveromycin A and spirofungin A derivatives” (Bioorg Med Chem Lett, 2008).
Values after ≈ are worked out from the molar mass of the structure shown.

Assays:
[1] = tested on: NRK; experiment: Effect on morphological reversion in src transformed NRK cells at 30 ug/mL; assay type: functional; conditions: Rattus norvegicus
[2] = tested on: NRK; experiment: Effect on morphological reversion in src transformed NRK cells at 10 ug/mL; assay type: functional; conditions: Rattus norvegicus
[3] = target: T1, Isoleucine--tRNA ligase, cytoplasmic (Homo sapiens, UniProt P41252); experiment: Inhibition of IleRS
T1 sequence (P41252 whole entry): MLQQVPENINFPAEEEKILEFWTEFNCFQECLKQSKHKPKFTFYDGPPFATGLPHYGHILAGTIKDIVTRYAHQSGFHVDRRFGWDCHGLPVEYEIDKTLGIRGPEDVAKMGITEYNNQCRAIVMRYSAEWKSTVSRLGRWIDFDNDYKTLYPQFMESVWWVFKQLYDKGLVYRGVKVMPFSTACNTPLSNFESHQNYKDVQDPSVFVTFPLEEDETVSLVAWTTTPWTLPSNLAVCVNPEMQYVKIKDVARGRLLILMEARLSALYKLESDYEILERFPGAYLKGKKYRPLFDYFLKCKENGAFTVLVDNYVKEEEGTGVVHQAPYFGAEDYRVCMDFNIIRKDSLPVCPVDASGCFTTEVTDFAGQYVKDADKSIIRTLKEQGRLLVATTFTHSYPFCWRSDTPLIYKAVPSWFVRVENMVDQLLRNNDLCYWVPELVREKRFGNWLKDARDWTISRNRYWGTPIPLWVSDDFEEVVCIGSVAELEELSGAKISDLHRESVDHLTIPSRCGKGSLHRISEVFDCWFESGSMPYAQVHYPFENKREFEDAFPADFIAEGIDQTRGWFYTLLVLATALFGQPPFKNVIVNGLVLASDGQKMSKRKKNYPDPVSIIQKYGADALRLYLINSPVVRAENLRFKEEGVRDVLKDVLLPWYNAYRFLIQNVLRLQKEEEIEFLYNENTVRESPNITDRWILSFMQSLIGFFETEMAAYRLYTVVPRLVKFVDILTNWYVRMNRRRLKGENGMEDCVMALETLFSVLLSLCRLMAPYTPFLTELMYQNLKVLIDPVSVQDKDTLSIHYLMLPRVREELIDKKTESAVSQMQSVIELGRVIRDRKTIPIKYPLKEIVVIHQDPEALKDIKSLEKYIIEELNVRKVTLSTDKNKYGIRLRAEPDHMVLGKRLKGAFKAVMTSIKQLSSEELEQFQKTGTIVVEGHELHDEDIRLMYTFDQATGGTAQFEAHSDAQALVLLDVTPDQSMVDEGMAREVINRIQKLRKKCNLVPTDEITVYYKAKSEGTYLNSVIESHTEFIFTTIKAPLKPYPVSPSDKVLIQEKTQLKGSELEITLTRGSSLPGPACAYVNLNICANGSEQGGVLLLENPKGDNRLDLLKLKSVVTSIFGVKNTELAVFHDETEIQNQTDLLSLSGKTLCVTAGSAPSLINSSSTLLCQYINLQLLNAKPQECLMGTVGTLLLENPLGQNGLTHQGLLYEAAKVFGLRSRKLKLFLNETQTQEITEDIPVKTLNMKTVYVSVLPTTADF

[4] = tested on: NRK; experiment: Effect on morphological reversion in src transformed NRK cells at 3 ug/mL; assay type: functional; conditions: Rattus norvegicus
[5] = tested on: NRK; experiment: Toxicity against src transformed NRK cells at 100 ug/mL; assay type: cell-based; conditions: rat
[6] = tested on: Osteoclast; experiment: Induction of apoptosis in mouse osteoclasts; assay type: functional
[7] = tested on: NRK; experiment: Effect on morphological reversion in src transformed NRK cells at 100 ug/mL; assay type: functional; conditions: Rattus norvegicus
[8] = tested on: NRK; experiment: […] morphological reversion in src transformed NRK cells; assay type: functional, cell-based; conditions: Rattus norvegicus
[9] = tested on: NRK; experiment: Effect on morphological reversion in src transformed NRK cells at 1 ug/mL; assay type: functional; conditions: Rattus norvegicus
[10] = tested on: NRK; experiment: Effect on morphological reversion in src transformed NRK cells at 0.3 ug/mL; assay type: functional; conditions: Rattus norvegicus

SMILES | inhibition at 30 µg/mL [1] [%] | inhibition at 10 µg/mL [2] [%] | IC50 [3] [nM] | inhibition at 3 µg/mL [4] [%] | Activity [5] | Activity [6] [µg/mL] | inhibition at 100 µg/mL [7] [%] | EC50 [8] [mg/L] | inhibition at 1 µg/mL [9] [%] | inhibition at 0.3 µg/mL [10] [%]
CC(/C=C/[C@H](OC(=O)CCC(=O)O)[C@@H](C)/C=C/C(=O)O)=C\C[C@H]1O[C@@]2(CC[C@H](C)[C@H](/C=C/C(C)=C/C(=O)O)O2)CC[C@@H]1C | < 10 | < 10 | > 1660 | < 10 | Toxic | 12.4 |  |  |  | 
CCCC[C@@]1(OC(=O)CCC(=O)O)CC[C@]2(CC[C@H](C)[C@@H](C/C=C(C)/C=C/[C@H](O)[C@@H](C)/C=C/C(=O)O)O2)O[C@H]1/C=C/C(C)=C/C(=O)O [REVEROMYCIN A] | > 80 | 50 | 4.46 | 20 |  | 0.06 | > 80 | 1.58 (≈ 2.39 µM) | 10 | < 10
